Measurements from patent US9624199B2, “Substituted bipiperidinyl derivatives” (Bayer Pharma Aktiengesellschaft, priority 2013, dated 2017).
Counter-ions that a name gives are not always drawn.

What was measured:
[1] = target: recombinant human α2C receptor CHO cell line (Homo sapiens (Human), UniProt P18825); assay: Antagonism against adrenoreceptor α2C (luminescence, noradrenaline-stimulated recombinant CHO cells); assay type: cell-based; details: 20 nM noradrenaline, tested up to 10 μM
Description: B-1a) Antagonism Against Adrenoreceptors
Antagonism against the adrenoreceptor α1A was tested using a recombinant human α1A receptor CHO cell line which additionally also recombinantly expresses mtAeq (mitochondrial aequorin). Antagonism against the adrenoreceptor α2A was tested using a recombinant human α2A-Gα16 receptor fusion protein CHO cell line (PerkinElmer Life Sciences) which additionally also recombinantly expresses mtAeq. Antagonism against the adrenoreceptor α2B was tested using a recombinant human α2B receptor CHO cell line (PerkinElmer Life Sciences) which additionally also recombinantly expresses mtAeq. Antagonism against the adrenoreceptor α2C was tested using a recombinant human α2C receptor CHO cell line which additionally also recombinantly expresses a chimeric G protein (Gαqi3) and mtOb (mitochondrial obelin).
The cells were cultivated at 37° C. and 5% CO2 in Dulbecco's modified Eagle's Medium/NUT mix F12 with L-glutamine which additionally contained 10% (v/v) inactivated foetal calf serum, 1 mM sodium pyruvate, 0.9 mM sodium bicarbonate, 50 U/ml penicillin, 50 μg/ml streptomycin, 2.5 μg/ml amphotericin B and 1 mg/ml Geneticin. The cells were passaged with enzyme-free Hank's-based cell dissociation buffer. All cell culture reagents used were from Invitrogen (Carlsbad, USA).
Luminescence measurements were carried out on white 384-well microtitre plates. 2000 cells/well were plated in a volume of 25 μl and cultivated for one day at 30° C. and 5% CO2 in cell culture medium with coelenterazine (α2A and α2B: 5 μg/ml; α1a/c and α2C: 2.5 μg/ml). Serial dilutions of the test substances (10 μl) were added to the cells. After 5 minutes, noradrenaline was added to the cells (35 μl; final concentrations: 20 nM (α1a/c and α2C) or 200 nM (α2A and α2B)), and the emitted light was measured for 50 seconds using a CCD (charge-coupled device) camera (Hamamatsu Corporation, Shizuoka, Japan) in a light-tight box. The test substances were tested up to a maximum concentration of 10 μM. The IC50 values were calculated from the appropriate dose-response curves.

[2] = test system: diabetic (ZDFfa/fa) and healthy rats (Wistar); assay: Assay of perfusion-enhancing substances (microcirculation), laser doppler probe at the paw; assay type: in vivo, rat; details: single oral dose; for factor by which microcirculation is improved at MED compared to placebo: at the MED, 30 min after administration; for MED skin temperature: minimum effective dose for significant increase of skin temperature (ttest); for MED microcirculation: minimum effective dose with significantly improved microcirculation vs placebo, measured 30 min after administration
Excerpt: B-2e) Assay of Perfusion-Enhancing Substances (Microcirculation)
In diabetic (ZDFfa/fa) and healthy rats (Wistar), a laser doppler probe was fastened under anaesthesia conditions (isoflurane anaesthesia) at the sole of the paw for measuring cutaneous microcirculation. The test animals were once treated orally with the test substances. During the experiment, microperfusion and temperature of the lower extremities were documented continuously. Here, a temperature-sensitive laser doppler probe (Periflux, 02C) was fastened with adhesive to the paws of the animals, allowing the measurement of microperfusion and skin temperature. The microcirculation measurement values were measured on both paws 30 min after oral administration of the test substance. […] Also stated is the MED for the significant increase of skin temperature (ttest).
Microcirculation data for adrenoreceptor α2C receptor antagonist of the compound of Example 11 and for comparative substance ORM12741, an AR α2C receptor antagonist from Orion, are shown in Table 2: […]

Chain of recombinant human α2C receptor CHO cell line (P18825 whole entry): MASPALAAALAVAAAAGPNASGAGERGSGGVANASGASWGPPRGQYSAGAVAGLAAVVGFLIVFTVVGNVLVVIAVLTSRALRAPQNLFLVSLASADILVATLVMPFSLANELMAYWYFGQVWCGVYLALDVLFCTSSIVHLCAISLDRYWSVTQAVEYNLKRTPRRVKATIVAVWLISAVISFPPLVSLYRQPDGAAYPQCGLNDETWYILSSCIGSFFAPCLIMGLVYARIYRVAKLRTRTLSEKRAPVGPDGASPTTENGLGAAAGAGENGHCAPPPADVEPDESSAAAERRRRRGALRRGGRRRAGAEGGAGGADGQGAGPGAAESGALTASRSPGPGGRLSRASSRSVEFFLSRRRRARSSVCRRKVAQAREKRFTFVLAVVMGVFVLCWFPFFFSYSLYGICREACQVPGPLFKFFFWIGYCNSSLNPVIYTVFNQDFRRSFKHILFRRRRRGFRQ

| IC50 [1] [nM] | Structure (SMILES) | further results |
| --- | --- | --- |
|  | C[C@@H]1CCCN(C2CCN(C(=O)c3ccc(N4CCOCC4)nc3)CC2)C1 [Example 1, [(3R)-3-Methyl-1,4′-bipiperidin-1′-yl][6-(morpholin-4-yl)pyridin-3-yl]methanone formic acid salt] | IC50 ([1]; formic acid salt): 28 nM |
| 50 | C[C@@H]1CCCN(C2CCN(C(=O)c3ccc(N4CCOCC4)nc3)CC2)C1 [Example 2, [(3R)-3-Methyl-1,4′-bipiperidin-1′-yl][6-(morpholin-4-yl)pyridin-3-yl]methanone] |  |
| 11 | COC[C@H]1CCCN1c1ccc(C(=O)N2CCC(N3CCC[C@@H](C)C3)CC2)cn1 [Example 3, {6-[(2R)-2-(Methoxymethyl)pyrrolidin-1-yl]pyridin-3-yl}[(3R)-3-methyl-1,4′-bipiperidin-1′-yl]methanone formic acid salt] |  |
| 36 | COCCNc1ccc(C(=O)N2CCC(N3CCC[C@@H](C)C3)CC2)cn1 [Example 4, {6-[(2-Methoxyethyl)amino]pyridin-3-yl}[(3R)-3-methyl-1,4′-bipiperidin-1′-yl]methanone] |  |
| 18 | C[C@@H]1CCCN(C2CCN(C(=O)c3ccc(N4CCC(F)(F)CC4)nc3)CC2)C1 [Example 5, [6-(4,4-Difluoropiperidin-1-yl)pyridin-3-yl][(3R)-3-methyl-1,4′-bipiperidin-1′-yl]methanone] |  |
| 33 | COCCN(C)c1ccc(C(=O)N2CCC(N3CCC[C@@H](C)C3)CC2)cn1 [Example 6, {6-[(2-Methoxyethyl)(methyl)amino]pyridin-3-yl}[(3R)-3-methyl-1,4′-bipiperidin-1′-yl]methanone hydrochloride] |  |
| 13 | O=C(c1ccc(N2CCOCC2)nc1)N1CCC(N2CCCC(OCC3CC3)C2)CC1 (stereo not drawn) [Example 7, [3-(Cyclopropylmethoxy)-1,4′-bipiperidin-1′-yl][6-(morpholin-4-yl)pyridin-3-yl]methanone] |  |
| 4.5 | C[C@@H]1CCCN(C2CCN(C(=O)c3ccc(N(C)Cc4c(F)cccc4F)nc3)CC2)C1 [Example 8, {6-[(2,6-Difluorobenzyl)(methyl)amino]pyridin-3-yl}[(3R)-3-methyl-1,4′-bipiperidin-1′-yl]methanone] |  |
| 27 | C[C@@H]1CCCN(C2CCN(C(=O)c3ccc(N4CCS(=O)(=O)CC4)nc3)CC2)C1 [Example 9, [6-(1,1-Dioxidothiomorpholin-4-yl)pyridin-3-yl][(3R)-3-methyl-1,4′-bipiperidin-1′-yl]methanone] |  |
| 18 | CC[C@@H](CO)Nc1ccc(C(=O)N2CCC(N3CCC[C@@H](C)C3)CC2)cn1 [Example 10, (6-{[(2 S)-1-Hydroxybutan-2-yl]amino}pyridin-3-yl)[(3R)-3-methyl-1,4′-bipiperidin-1′-yl]methanone] |  |
| 62 | CCC(CO)Nc1ccc(C(=O)N2CCC(N3CCC[C@@H](C)C3)CC2)cn1 (stereo partly drawn) [Example 11, {6[(1-Hydroxybutan-2-yl)amino]pyridin-3-yl}[(3R)-3-methyl-1,4′-bipiperidin-1′-yl]methanone] | factor by which microcirculation is improved at MED compared to placebo [2]: 2.4 ×; MED skin temperature [2]: 1 mg/kg; MED microcirculation [2]: 1 mg/kg |
| 21 | CCC(COC(N)=O)Nc1ccc(C(=O)N2CCC(N3CCC[C@@H](C)C3)CC2)cn1 (stereo partly drawn) [Example 12, 2-[(5-{[(3R)-3-Methyl-1,4′-bipiperidin-1′-yl]carbonyl}pyridin-2-yl)amino]butyl carbamate] |  |
| 12 | COC1CCN(c2ccc(C(=O)N3CCC(N4CCC[C@@H](C)C4)CC3)cn2)C1 (stereo partly drawn) [Example 13, [6-(3-Methoxypyrrolidin-1-yl)pyridin-3-yl][(3R)-3-methyl-1,4′-bipiperidin-1′-yl]methanone] |  |
| 16 | CCC(COC)Nc1ccc(C(=O)N2CCC(N3CCC[C@@H](C)C3)CC2)cn1 (stereo partly drawn) [Example 14, {6-[(1-Methoxybutan-2-yl)amino]pyridin-3-yl}[(3R)-3-methyl-1,4′-bipiperidin-1′-yl]methanone] |  |
| 27 | CC1CCCN(c2ccc(C(=O)N3CCC(N4CCC[C@@H](C)C4)CC3)cn2)C1 (stereo partly drawn) [Example 15, [(3R)-3-Methyl-1,4′-bipiperidin-1′-yl][6-(3-methylpiperidin-1-yl)pyridin-3-yl]methanone] |  |
| 54 | C[C@@H]1CCCN(C2CCN(C(=O)c3cnc(N4CCOCC4)nc3)CC2)C1 [Example 16, [(3R)-3-Methyl-1,4′-bipiperidin-1′-yl][2-(morpholin-4-yl)pyrimidin-5-yl]methanone] |  |
| 14 | O=C(c1cnc(N2CCOCC2)nc1)N1CCC(N2CCCC(OCC3CC3)C2)CC1 (stereo not drawn) [Example 17, [3-(Cyclopropylmethoxy)-1,4′-bipiperidin-1′-yl][2-(morpholin-4-yl)pyrimidin-5-yl]methanone] |  |
| 24 | C[C@@H]1CCCN(C2CCN(C(=O)c3cnc(N4CC5(COC5)C4)nc3)CC2)C1 [Example 18, [(3R)-3-Methyl-1,4′-bipiperidin-1′-yl][2-(2-oxa-6-azaspiro[3.3]hept-6-yl)pyrimidin-5-yl]methanone] |  |
| 19 | C[C@@H]1CCCN(C2CCN(C(=O)c3cnc(N4CCC(F)(F)CC4)nc3)CC2)C1 [Example 19, [2-(4,4-Difluoropiperidin-1-yl)pyrimidin-5-yl][(3R)-3-methyl-1,4′-bipiperidin-1′-yl]methanone] |  |
| 41 | COC[C@H]1CCCN1c1ncc(C(=O)N2CCC(N3CCC[C@@H](C)C3)CC2)cn1 [Example 20, {2-[(2R)-2-(Methoxymethyl)pyrrolidin-1-yl]pyrimidin-5-yl}[(3R)-3-methyl-1,4′-bipiperidin-1′-yl]methanone] |  |
| 71 | C[C@@H]1CCCN(C2CCN(C(=O)c3cnc(N4CCS(=O)(=O)CC4)cn3)CC2)C1 [Example 21, [5-(1,1-Dioxidothiomorpholin-4-yl)pyrazin-2-yl][(3R)-3-methyl-1,4′-bipiperidin-1′-yl]methanone] |  |
|  | COC[C@@]1(C)CCCN2CCc3c(oc4ccccc34)[C@@H]21 [ORM-12741, reference compound] | factor by which microcirculation is improved at MED compared to placebo [2]: 1.9 ×; MED skin temperature [2]: 0.01 mg/kg; MED microcirculation [2]: 0.1 mg/kg |
